Experimental data: patent US11279707B2, “NEK inhibitors and methods of use” (DANA-FARBER CANCER INSTITUTE, INC., priority 2017, dated 2022)

Legend:
Type in all cases: biochemical
NEK6 = NEK6 (Homo sapiens, UniProt Q9HC98); test: kinase inhibition, NEK6
RSK1 = RSK1 (Homo sapiens, UniProt Q15418); test: kinase inhibition, RSK1
AXL = molecular target: T1, AXL (Homo sapiens, UniProt P30530); test: kinase inhibition, AXL
T1 sequence (P30530 26-894): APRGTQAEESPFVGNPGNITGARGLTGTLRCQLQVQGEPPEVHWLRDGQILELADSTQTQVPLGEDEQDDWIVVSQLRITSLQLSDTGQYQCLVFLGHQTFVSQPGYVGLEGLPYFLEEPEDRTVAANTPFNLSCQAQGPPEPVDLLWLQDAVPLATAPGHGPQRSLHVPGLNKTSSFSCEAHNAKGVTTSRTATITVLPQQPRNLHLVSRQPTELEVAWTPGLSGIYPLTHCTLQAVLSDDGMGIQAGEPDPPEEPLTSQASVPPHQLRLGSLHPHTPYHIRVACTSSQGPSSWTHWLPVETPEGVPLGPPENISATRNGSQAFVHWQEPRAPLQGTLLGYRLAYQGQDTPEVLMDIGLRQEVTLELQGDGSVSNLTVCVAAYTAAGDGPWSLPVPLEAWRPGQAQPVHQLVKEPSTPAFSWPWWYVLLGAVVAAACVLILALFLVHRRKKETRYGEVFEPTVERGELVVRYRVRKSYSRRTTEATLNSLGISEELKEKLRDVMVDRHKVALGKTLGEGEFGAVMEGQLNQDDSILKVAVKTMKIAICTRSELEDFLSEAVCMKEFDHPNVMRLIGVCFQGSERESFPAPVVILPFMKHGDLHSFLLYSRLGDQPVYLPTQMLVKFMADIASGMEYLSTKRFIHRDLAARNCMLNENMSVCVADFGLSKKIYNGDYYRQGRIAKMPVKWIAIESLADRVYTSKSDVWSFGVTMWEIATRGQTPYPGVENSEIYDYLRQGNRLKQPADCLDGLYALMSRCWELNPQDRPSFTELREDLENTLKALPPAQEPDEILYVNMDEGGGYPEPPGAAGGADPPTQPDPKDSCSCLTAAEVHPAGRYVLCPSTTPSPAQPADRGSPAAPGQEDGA

SLK = SLK (Homo sapiens, UniProt Q9H2G2); test: kinase inhibition, SLK
NEK9 = molecular target: T2, NEK9 (Homo sapiens, UniProt Q8TD19); test: kinase inhibition, NEK9
T2 sequence (Q8TD19 1-979): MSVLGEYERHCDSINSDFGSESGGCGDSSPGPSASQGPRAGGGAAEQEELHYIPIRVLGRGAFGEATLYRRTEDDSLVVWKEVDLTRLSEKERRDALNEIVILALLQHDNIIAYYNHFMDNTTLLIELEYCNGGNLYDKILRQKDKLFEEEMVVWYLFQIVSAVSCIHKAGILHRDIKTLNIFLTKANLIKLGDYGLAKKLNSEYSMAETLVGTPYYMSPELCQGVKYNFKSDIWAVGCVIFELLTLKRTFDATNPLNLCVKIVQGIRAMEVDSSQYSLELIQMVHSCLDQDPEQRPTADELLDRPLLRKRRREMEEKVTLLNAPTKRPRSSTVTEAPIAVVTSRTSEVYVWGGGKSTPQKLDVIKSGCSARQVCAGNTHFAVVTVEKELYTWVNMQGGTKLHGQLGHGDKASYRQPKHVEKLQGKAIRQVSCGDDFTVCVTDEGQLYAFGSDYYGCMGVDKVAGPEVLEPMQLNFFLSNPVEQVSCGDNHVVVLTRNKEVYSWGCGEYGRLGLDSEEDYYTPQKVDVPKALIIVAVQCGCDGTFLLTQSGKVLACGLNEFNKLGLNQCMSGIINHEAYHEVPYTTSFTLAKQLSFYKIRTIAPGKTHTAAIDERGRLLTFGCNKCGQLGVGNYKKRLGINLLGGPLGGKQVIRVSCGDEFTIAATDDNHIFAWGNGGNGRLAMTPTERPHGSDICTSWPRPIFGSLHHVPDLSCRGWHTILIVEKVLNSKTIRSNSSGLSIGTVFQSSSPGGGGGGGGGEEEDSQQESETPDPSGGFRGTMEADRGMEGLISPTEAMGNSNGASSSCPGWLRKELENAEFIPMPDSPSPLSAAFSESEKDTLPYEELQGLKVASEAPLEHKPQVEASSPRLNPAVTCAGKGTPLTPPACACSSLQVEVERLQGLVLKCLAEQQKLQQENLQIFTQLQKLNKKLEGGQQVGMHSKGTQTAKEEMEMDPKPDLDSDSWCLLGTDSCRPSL

DRAK1 = molecular target: T3, DRAK1 (Homo sapiens, UniProt Q9UEE5); test: kinase inhibition, DRAK1
T3 sequence (Q9UEE5 1-414): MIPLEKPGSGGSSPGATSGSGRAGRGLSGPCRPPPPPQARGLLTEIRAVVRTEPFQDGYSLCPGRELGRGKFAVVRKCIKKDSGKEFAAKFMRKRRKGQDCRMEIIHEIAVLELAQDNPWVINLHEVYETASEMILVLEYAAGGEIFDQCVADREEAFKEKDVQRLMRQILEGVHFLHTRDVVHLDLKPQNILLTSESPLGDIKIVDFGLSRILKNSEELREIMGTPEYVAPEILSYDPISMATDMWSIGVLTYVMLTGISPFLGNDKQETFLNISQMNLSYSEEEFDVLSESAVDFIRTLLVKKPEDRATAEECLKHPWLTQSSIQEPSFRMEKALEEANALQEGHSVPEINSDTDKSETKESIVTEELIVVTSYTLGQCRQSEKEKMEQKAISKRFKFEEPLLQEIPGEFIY

GRK4 = GRK4 (Homo sapiens, UniProt P32298); test: kinase inhibition, GRK4
CLK = test: kinase inhibition, CLK
GSK3B = GSK3B (Homo sapiens, UniProt P49841); test: kinase inhibition, GSK3B
Chain of GSK3B (P49841 whole entry, species assumed): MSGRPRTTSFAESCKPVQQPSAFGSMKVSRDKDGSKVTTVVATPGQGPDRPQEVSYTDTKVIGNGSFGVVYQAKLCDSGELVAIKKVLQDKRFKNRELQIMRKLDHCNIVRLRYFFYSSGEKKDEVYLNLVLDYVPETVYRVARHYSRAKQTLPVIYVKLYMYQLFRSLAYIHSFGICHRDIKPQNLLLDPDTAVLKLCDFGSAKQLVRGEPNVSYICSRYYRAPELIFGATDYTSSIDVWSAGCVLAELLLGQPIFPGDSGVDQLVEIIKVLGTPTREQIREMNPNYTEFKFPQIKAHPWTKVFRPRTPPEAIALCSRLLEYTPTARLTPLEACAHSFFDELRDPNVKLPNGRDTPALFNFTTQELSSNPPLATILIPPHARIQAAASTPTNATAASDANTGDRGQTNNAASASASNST

Chain of SLK (Q9H2G2 whole entry): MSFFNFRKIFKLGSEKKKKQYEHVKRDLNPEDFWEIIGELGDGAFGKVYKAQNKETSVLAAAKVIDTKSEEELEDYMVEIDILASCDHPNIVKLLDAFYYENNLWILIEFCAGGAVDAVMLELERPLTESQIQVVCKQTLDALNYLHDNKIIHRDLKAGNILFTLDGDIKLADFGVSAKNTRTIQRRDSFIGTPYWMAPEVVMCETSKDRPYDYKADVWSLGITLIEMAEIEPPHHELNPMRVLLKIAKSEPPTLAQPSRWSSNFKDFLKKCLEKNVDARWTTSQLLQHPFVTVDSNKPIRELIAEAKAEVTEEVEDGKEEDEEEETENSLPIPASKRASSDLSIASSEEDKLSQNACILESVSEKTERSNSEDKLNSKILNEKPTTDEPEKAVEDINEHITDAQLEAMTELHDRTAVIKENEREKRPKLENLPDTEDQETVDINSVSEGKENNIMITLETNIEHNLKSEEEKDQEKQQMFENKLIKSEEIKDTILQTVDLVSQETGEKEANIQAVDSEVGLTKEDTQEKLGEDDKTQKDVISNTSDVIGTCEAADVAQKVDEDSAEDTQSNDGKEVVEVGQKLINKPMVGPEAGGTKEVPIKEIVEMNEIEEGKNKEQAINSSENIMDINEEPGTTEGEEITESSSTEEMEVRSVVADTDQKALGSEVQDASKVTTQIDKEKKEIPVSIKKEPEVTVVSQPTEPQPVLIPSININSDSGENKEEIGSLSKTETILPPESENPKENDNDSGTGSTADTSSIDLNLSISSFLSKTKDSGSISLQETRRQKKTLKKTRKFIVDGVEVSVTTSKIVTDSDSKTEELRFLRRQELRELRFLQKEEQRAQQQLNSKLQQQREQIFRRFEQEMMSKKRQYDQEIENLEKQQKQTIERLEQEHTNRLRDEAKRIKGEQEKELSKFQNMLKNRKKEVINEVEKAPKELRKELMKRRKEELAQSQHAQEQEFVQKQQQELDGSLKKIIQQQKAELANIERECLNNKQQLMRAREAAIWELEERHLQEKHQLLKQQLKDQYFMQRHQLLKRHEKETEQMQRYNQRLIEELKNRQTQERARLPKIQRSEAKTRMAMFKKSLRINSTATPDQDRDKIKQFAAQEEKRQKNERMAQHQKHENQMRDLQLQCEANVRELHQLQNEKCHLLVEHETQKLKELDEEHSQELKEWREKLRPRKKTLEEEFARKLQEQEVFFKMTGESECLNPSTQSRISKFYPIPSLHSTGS
Chain of RSK1 (Q15418 whole entry, species assumed): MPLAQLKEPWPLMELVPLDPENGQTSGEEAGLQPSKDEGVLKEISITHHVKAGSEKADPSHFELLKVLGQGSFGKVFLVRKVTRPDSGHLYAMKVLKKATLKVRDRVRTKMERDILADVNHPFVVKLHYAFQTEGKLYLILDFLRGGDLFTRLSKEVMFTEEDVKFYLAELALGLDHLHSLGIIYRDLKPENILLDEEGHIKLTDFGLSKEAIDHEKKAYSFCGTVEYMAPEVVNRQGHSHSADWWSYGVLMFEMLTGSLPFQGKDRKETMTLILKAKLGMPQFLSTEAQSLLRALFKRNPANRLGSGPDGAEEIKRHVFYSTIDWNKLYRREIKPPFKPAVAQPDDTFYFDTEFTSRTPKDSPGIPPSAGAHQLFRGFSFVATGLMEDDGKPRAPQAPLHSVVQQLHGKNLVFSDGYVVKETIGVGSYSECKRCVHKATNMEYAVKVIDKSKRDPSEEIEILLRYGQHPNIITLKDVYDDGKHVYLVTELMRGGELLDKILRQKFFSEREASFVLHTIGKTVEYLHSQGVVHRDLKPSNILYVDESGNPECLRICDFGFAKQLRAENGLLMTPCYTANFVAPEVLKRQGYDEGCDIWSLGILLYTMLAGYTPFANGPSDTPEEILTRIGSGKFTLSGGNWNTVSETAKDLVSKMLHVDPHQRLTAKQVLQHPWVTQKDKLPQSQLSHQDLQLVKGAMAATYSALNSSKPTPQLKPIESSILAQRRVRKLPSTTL
Chain of NEK6 (Q9HC98 whole entry, species assumed): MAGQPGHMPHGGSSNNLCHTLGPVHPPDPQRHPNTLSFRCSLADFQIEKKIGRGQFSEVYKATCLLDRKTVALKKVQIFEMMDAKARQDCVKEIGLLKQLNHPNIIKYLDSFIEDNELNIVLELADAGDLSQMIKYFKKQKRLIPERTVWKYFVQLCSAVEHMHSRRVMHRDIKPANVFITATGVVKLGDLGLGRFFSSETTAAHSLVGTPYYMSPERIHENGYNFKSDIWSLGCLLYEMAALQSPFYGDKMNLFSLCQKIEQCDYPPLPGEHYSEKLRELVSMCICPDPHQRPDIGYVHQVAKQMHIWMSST
Chain of GRK4 (P32298 whole entry, species assumed): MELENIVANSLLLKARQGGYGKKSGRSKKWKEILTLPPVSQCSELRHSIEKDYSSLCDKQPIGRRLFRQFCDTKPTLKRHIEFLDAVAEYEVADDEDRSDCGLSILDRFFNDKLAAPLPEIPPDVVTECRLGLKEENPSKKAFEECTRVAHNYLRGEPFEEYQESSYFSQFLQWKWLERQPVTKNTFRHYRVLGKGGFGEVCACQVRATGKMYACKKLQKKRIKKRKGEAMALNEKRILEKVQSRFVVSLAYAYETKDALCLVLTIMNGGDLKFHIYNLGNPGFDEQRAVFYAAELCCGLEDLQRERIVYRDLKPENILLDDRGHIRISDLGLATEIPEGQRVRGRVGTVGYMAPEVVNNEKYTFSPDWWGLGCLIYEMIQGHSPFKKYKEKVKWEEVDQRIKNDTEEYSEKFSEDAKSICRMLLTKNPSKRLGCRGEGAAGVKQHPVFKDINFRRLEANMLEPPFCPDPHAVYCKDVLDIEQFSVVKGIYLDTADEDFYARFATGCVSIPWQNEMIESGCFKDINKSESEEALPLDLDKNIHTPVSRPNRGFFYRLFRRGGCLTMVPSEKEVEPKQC

| SMILES | IC50 (NEK6) [nM] | IC50 (RSK1) [nM] | IC50 (AXL) [nM] | IC50 (SLK) [nM] | IC50 (DRAK1) [nM] | IC50 (GRK4) [nM] | IC50 (CLK) [nM] | IC50 (GSK3B) [nM] | IC50 (NEK9) [nM] |
| --- | --- | --- | --- | --- | --- | --- | --- | --- | --- |
| COc1cc(N2CCC(O)CC2)ccc1Nc1ncc2c(n1)n1c(cc3ccccc31)c(=O)n2C [Compound I-2] | 250 to 1000 | 1000 to 5000 | ≥ 5000 | 1000 to 5000 | 50 to 250 | – | 250 to 1000 | 1000 to 5000 | 50 to 250 |
| COc1cc(N2CCN(C)CC2)ccc1Nc1ncc2c(n1)n1c(cc3ccccc31)c(=O)n2C [Compound I-3] | 50 to 250 | 250 to 1000 | ≥ 5000 | 1000 to 5000 | 50 to 250 | – | 1000 to 5000 | 1000 to 5000 | 50 to 250 |
| COc1cc(C(=O)N2CCC(N3CCN(C)CC3)CC2)ccc1Nc1ncc2c(n1)n1c(cc3ccccc31)c(=O)n2C [Compound I-4] | 1000 to 5000 | 250 to 1000 | ≥ 5000 | 1000 to 5000 | 1000 to 5000 | – | 50 to 250 | ≥ 5000 | 250 to 1000 |
| COc1cc(C2CCN(C)CC2)ccc1Nc1ncc2c(n1)n1c(cc3ccccc31)c(=O)n2C [Compound I-6] | 250 to 1000 | 50 to 250 | 1000 to 5000 | 1000 to 5000 | 250 to 1000 | – | 50 to 250 | ≥ 5000 | 50 to 250 |

Second part, led by results:

| IC50 (NEK6) [nM] | IC50 (RSK1) [nM] | IC50 (AXL) [nM] | IC50 (SLK) [nM] | IC50 (DRAK1) [nM] | IC50 (GRK4) [nM] | IC50 (CLK) [nM] | IC50 (GSK3B) [nM] | SMILES | IC50 (NEK9) [nM] |
| --- | --- | --- | --- | --- | --- | --- | --- | --- | --- |
| 50 to 250 | 50 to 250 | 50 to 250 | 50 to 250 | 50 to 250 | 1000 to 5000 | 50 to 250 | 250 to 1000 | CN1CCN(c2ccc(Nc3ncc4c(n3)n3c(cc5ccccc53)c(=O)n4C)cc2)CC1 [Compound I-1] | ≤ 50 |
| ≥ 5000 | 1000 to 5000 | 1000 to 5000 | 250 to 1000 | 250 to 1000 | – | 1000 to 5000 | ≥ 5000 | CN1CCN(c2ccc(Nc3ncc4c(n3)n3c(cc5ccccc53)c(=O)n4C)cc2C(F)(F)F)CC1 [Compound I-5] | 50 to 250 |
